The structures appear in SMILES notation.

The nature of the data set: gradient 5% acetonitrile 3 min, to 50% in 2 min, to 85% in 15 min, held 3 min, 100 µL/min. As to conditions: column: Zorbax Extend-C18 2.1 x 50 mm; eluents: water / acetonitrile, 0.1% formic acid. In short, it runs like this: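 Over 3 months, pure standards in mixtures of ~100 molecules were run by HPLC coupled to a quadrupole time-of-flight mass spectrometer in positive and negative ionization mode. The column was a Zorbax Extend-C18 (2.1 × 50 mm, 1.8 μm) at 100 μL/min, eluted with water and acetonitrile each holding 0.1% formic acid, with 40 μL dead and 900 μL dwell volumes. Retention time was determined from adduct peaks chosen by software and checked manually.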
As to `CCc1cccc(C)c1NC(=O)Cn1cnc2nc(N3CCC(C(=O)NC)CC3)sc2c1=O`, the RP-LC retention time was determined as 646 s.

`CCOC(=O)NCC1CCN(S(C)(=O)=O)CC1` returned an RP-LC retention time of 603 s.

`Cc1ccc(-c2nc(C3CCN(S(=O)(=O)c4c(C)cc(C)cc4C)CC3)no2)cc1` yielded an RP-LC retention time of 1420 s.

As to `Cc1ncsc1CN1CCCC(c2nc(C(C)C)no2)CCNC(=O)CC1` (stereo not given), the RP-LC retention time is 598 s.

Turning to `CCc1ccc(C(=O)c2cnc3ccc(OC)cc3c2N2CCN(C)CC2)cc1`, the RP-LC retention time was determined as 614 s.

`COC1C(=O)N(c2cccc(F)c2)C12CCN(C(=O)C1(c3ccccc3)CC1)CC2` (stereo not given) returned an RP-LC retention time of 994 s.

`Cc1cc2nn(CC(=O)Nc3ccc(F)cc3)c(=O)n2c(N2CCCC2)n1` registered an RP-LC retention time of 739 s.

In turn, `Fc1ccc(-c2noc(Cc3nnc(-c4cccc(Cl)c4)o3)n2)cc1` displayed an RP-LC retention time of 1070 s.

`COCC1CN(C)CC12CCN(Cc1cccc(OC)n1)CC2` (stereo not given) returned an RP-LC retention time of 567 s.

`CN(C)c1cnc(-n2cc(NC(=O)c3ccc(F)cc3)cn2)nc1` registered an RP-LC retention time of 723 s.

Consider `CCn1nccc1C(=O)N1CCCC1c1ccccc1F` (stereo not given), for which the RP-LC retention time is 840 s.

`CCCn1c(=O)c2cc(C(=O)N3CCN(c4ccc(OC)cc4)CC3)nn2c2ccccc21` yielded an RP-LC retention time of 862 s.

`CCOC(=O)c1c(C)c(CCC(=O)NCc2ccco2)n(C)c1C` returned an RP-LC retention time of 792 s.

`Cc1nn2c(CNC(=O)C3CCC3)c(-c3ccccc3)nc2s1` displayed an RP-LC retention time of 743 s.

Compound `COc1ccc(C(=O)N2CCC(n3c(-c4ccoc4)nc4cccnc43)C2)cc1` (stereo not given) gave an RP-LC retention time of 659 s.

Compound `Nc1n[nH]c(-c2ccccc2)n1` showed an RP-LC retention time of 619 s.

The compound `O=S(=O)(c1cccn2c(SCc3cccc(Cl)c3)nnc12)N1CCCC1` yielded an RP-LC retention time of 860 s.

`CCCCN1C(=O)C(C)(C(=O)Nc2cc(Cl)ccc2OC)Oc2cccnc21` (stereo not given): the RP-LC retention time is 1230 s.

In the case of `CCc1ccc(-c2noc(Cn3c(=O)n(Cc4cccc(OC)c4)c(=O)c4sccc43)n2)cc1`, the RP-LC retention time turned out to be 1170 s.

`Cn1nnc2c(N3CCN(C(=O)Nc4ccccc4C#N)CC3)ncnc21` registered an RP-LC retention time of 626 s.

In turn, `CCc1noc(NC(C)=O)c1-c1ccc(OC)c(S(=O)(=O)NC(C)C)c1` displayed an RP-LC retention time of 695 s.

Compound `COCCc1nncn1C1CN(Cc2cccc(OC(F)(F)F)c2)C1` yielded an RP-LC retention time of 606 s.

Consider `COc1ccccc1NC(=O)C1CCN(S(=O)(=O)c2cn(C(C)C)cn2)CC1`, for which the RP-LC retention time is 757 s.

`CCC(CO)NCc1ccc(-c2cccc(Cl)c2C)o1` (stereo not given) displayed an RP-LC retention time of 683 s.

As to `Cc1noc(C)c1CN1CCC(NC(=O)c2cccc(C#N)c2)C1` (stereo not given), the RP-LC retention time was 578 s.

`Cc1ccccc1OCC(=O)Nc1nnc(C2CC(=O)N(c3ccc(F)cc3)C2)o1` (stereo not given): the RP-LC retention time came out at 738 s.

With `Cc1ccc(NC(=O)c2cccn2Cc2noc(C)n2)cc1`, the RP-LC retention time came out at 856 s.

Compound `O=C(Nc1ccc(OCc2nnc(-c3ccccc3)o2)cc1)c1ccsc1` showed an RP-LC retention time of 864 s.

As for `COc1ccccc1-c1nc(C2CC(=O)N(c3ccc(F)c(Cl)c3)C2)no1` (stereo not given), the RP-LC retention time stood at 1020 s.

In the case of `CCOc1cccc(Cn2c(=O)c3sccc3n(Cc3nc(-c4ccc(C)cc4)no3)c2=O)c1`, the RP-LC retention time came to 1120 s.

In turn, `O=C(CN1CCN(Cc2ccccc2F)C1=O)NCc1ccc(N2CCOCC2)cc1` displayed an RP-LC retention time of 699 s.

`Cc1ccn2cc(C(=O)N3CCN(c4ccccc4C)CC3)nc2c1` displayed an RP-LC retention time of 901 s.

As for `CCOCCCNC(=O)CCc1c(-c2ccc(F)cc2)nc2ccccn12`, the RP-LC retention time was 588 s.

In turn, `O=C(CSc1cc(NCc2ccc(Cl)cc2)ncn1)Nc1ccc(F)cc1F` yielded an RP-LC retention time of 988 s.

The compound `COc1ccc(C2(C(=O)N3CC(c4noc(COc5ccc(F)cc5)n4)C3)CC2)cc1` gave an RP-LC retention time of 974 s.

`Cc1nn(C(C)C)c(C)c1S(=O)(=O)N1CCN(C(=O)c2cncc(Br)c2)CC1` had an RP-LC retention time of 762 s.

Compound `COC(=O)c1ccccc1Nc1c(-c2ccc(OC)cc2)nc2cnccn12` registered an RP-LC retention time of 948 s.

`CCOC(=O)C1CCN(C(=O)C2c3cc(OC)c(OC)cc3C(=O)N(C)C2c2cccs2)CC1` (stereo not given) yielded an RP-LC retention time of 728 s.

In turn, `NC(=O)C1CCN(c2ncnc(N)c2[N+](=O)[O-])CC1` displayed an RP-LC retention time of 512 s.

In the case of `CCc1nc2cc(-c3noc(-c4cccc(OC)c4OC)n3)ccc2o1`, the RP-LC retention time turned out to be 1130 s.

On to `Cc1ccc(S(=O)(=O)Nc2ccc3c(c2)CCC(=O)N3CC(C)C)cc1Cl`, for which the RP-LC retention time is 994 s.

In the case of `Cc1nccn1Cc1nc(-c2ccccc2Cl)no1`, the RP-LC retention time turned out to be 624 s.

In turn, `CC1CN(C(=O)N2CCC(C(=O)N3CCN(c4ccccn4)CC3)CC2)c2cc(Cl)ccc2O1` (stereo not given) came in with an RP-LC retention time of 672 s.

Compound `Cn1c(=O)cnc2ccc(N3CCOCC3)nc21` displayed an RP-LC retention time of 662 s.

On to `Cc1ccc(-c2noc(Cn3ncn4nc(-c5ccc(F)cc5)cc4c3=O)n2)cc1`, for which the RP-LC retention time came out at 817 s.

The compound `Cc1ccc(CN2CC(Cn3c(C)cnc3-c3ccncc3)C2)o1` showed an RP-LC retention time of 611 s.

As to `CC(C)Sc1ccc2nn(CC(=O)Nc3ccc(Br)cc3F)c(=O)n2n1`, the RP-LC retention time came to 843 s.

The compound `CCOC(=O)c1cn(Cc2ccccc2F)c2nc(C)ccc2c1=O` had an RP-LC retention time of 880 s.

In the case of `O=C(NCc1ccccc1)C1CC(=O)N(C2CN(Cc3ccc(C(F)(F)F)cc3)C2)C1` (stereo not given), the RP-LC retention time is 666 s.

In turn, `COc1ccccc1-c1nc(Cc2noc(-c3ccc(F)cc3)n2)c(C)o1` had an RP-LC retention time of 1040 s.

`O=C(c1cccnc1)N1CC(n2cc(COCC3CC3)nn2)C1` showed an RP-LC retention time of 597 s.

`CCn1c(N2CCC(C(=O)N3CCN(c4ccccn4)CC3)CC2)cc(=O)n(C)c1=O`: the RP-LC retention time is 584 s.

On to `COc1ccc(Cl)cc1NC(=O)CSc1cc(N2CCN(c3ccccc3OC)CC2)ncn1`, for which the RP-LC retention time is 1240 s.

As to `O=C(NCc1ccccc1)C1=C2CCCN2c2ccccc2S1(=O)=O`, the RP-LC retention time stood at 810 s.

In the case of `CCc1nc2cc(-c3noc(/C=C/c4ccc(OC)c(OC)c4)n3)ccc2o1`, the RP-LC retention time stood at 1140 s.

With `O=C(/C=C/c1cccc(S(=O)(=O)Nc2ccccc2)c1)NO`, the RP-LC retention time was 679 s.

Turning to `CC(C)NC(=O)N1CCCC(c2cccc(C(=O)NCCC3=CCCCC3)c2)C1` (stereo not given), the RP-LC retention time was found to be 977 s.

`O=S(=O)(Cc1cccc(Cl)c1)N1CCc2nc(-c3ccc(F)cc3)ncc2C1` gave an RP-LC retention time of 1110 s.

`Cc1ccc(Cn2cc(-c3ccncc3)cc2C(=O)N2CCC(N3CCCCC3)CC2)cc1` showed an RP-LC retention time of 564 s.

In turn, `COc1ccc(S(=O)(=O)Nc2ccc3nc(-c4ccc(F)cc4)cc(OC)c3c2)cc1` showed an RP-LC retention time of 774 s.

The values above are taken from the METLIN SMRT retention time set (Domingo-Almenara et al. 2019).
